In PubChem BioAssay (NCI):
Values joined by “and” are separate entries in the source; they are usually repeats but may differ in a detail not shown here. Equal entries are not always repeated.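 These data come from cells grown in 96-well plates and exposed to compound for 48 hours at five concentrations. GI50: concentration for 50% inhibition of growth. TGI: total growth inhibition.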

Legend:
Test in all cases: NCI anticancer screen, dose series, 48 h
ACHN renal = tested on: ACHN renal
HOP-92 NSCLC = tested on: HOP-92 NSCLC
MALME-3M melanoma = tested on: MALME-3M melanoma
T-47D breast = tested on: T-47D breast
SK-OV-3 ovarian = tested on: SK-OV-3 ovarian
SW-620 colon = tested on: SW-620 colon
U251 CNS = tested on: U251 CNS
SK-MEL-28 melanoma = tested on: SK-MEL-28 melanoma
786-0 renal = tested on: 786-0 renal
LOX IMVI melanoma = tested on: LOX IMVI melanoma

Structure (SMILES)	GI50 (ACHN renal)	TGI (ACHN renal)	GI50 (HOP-92 NSCLC)	TGI (HOP-92 NSCLC)	GI50 (MALME-3M melanoma)	TGI (MALME-3M melanoma)	GI50 (T-47D breast)	TGI (T-47D breast)	GI50 (SK-OV-3 ovarian)	TGI (SK-OV-3 ovarian)	GI50 (SW-620 colon)	TGI (SW-620 colon)	GI50 (U251 CNS)	TGI (U251 CNS)	GI50 (SK-MEL-28 melanoma)	TGI (SK-MEL-28 melanoma)	GI50 (786-0 renal)	TGI (786-0 renal)	GI50 (LOX IMVI melanoma)	TGI (LOX IMVI melanoma)
CCN1CCN(CC(=O)Nc2nc3ccc(NCc4ccc(C)cc4)cc3s2)CC1	6.06 µM	12.3 µM	0.504 µM	2.34 µM	1.04 µM	2.43 µM	1.6 µM	7.29 µM	4.12 µM	12.4 µM	1.6 µM	6.07 µM	2.77 µM	9.14 µM	0.929 µM	1.92 µM	4.24 µM	10.9 µM	0.94 µM	1.86 µM
Cc1cc(Br)c2nsnc2c1[N+](=O)[O-]	4.39 µM	15.5 µM	7.24 µM	22.1 µM	2.08 µM	6.55 µM	0.921 µM	5.96 µM	13.5 µM	26.4 µM	2.15 µM	15.1 µM	2.73 µM	8.12 µM	3.34 µM	7.67 µM	3.96 µM	13.7 µM	0.94 µM	3.07 µM
O=C(O)c1ccccc1-c1ccccc1C(=O)Nc1ccc2c(c1)Cc1ccccc1-2		> 100 µM		> 100 µM		> 100 µM		> 100 µM		> 100 µM		> 100 µM		> 100 µM		> 100 µM		> 100 µM		54.5 µM
Cc1cc(NS(=O)(=O)c2ccc(NC(=O)COc3ccc(-c4cc5ccccc5[nH]4)cc3)cc2)no1	2.44 µM	6.9 µM	1.3 µM	3.83 µM	1.5 µM	3.85 µM	2.75 µM	8.56 µM	1.85 µM	3.55 µM	1.48 µM	3.52 µM	1.86 µM	6.74 µM	1.55 µM	3.17 µM	1.93 µM	3.65 µM	1.86 µM	5.18 µM
Cc1cc2oc(=O)c(Cl)c(Cl)c2c(C)c1Cl		23.3 µM		7.45 µM		23.7 µM		40.2 µM		27.6 µM		2.94 µM		8.45 µM		28.9 µM		10.2 µM		8.84 µM
CC(=O)Nc1cc(C(c2ccccc2)c2ccccc2)cc(C(c2ccccc2)c2ccccc2)c1C	8.71 µM	> 100 µM	4.68 µM	> 100 µM	9.59 µM	> 100 µM	3.18 µM	> 100 µM	> 100 µM	> 100 µM	7.25 µM	> 100 µM	7.63 µM	> 100 µM	> 100 µM	> 100 µM	> 100 µM	> 100 µM	7.98 µM	> 100 µM
Cc1cc(C(=O)N2CCN(C)CC2)c2c(=O)n(-c3ccccc3)c(=O)n(CC(O)CN3CCN(c4ncccn4)CC3)c2n1 (centres undefined)	> 100 µM	> 100 µM	> 100 µM	> 100 µM	> 100 µM	> 100 µM	> 100 µM	> 100 µM	> 100 µM	> 100 µM	> 100 µM	> 100 µM	> 100 µM	> 100 µM	> 100 µM	> 100 µM	> 100 µM	> 100 µM	> 100 µM	> 100 µM
[CH3][Sn]([CH3])([CH3])[O]C(=O)C(O)c1ccccc1 (centres undefined)	4.27 µM	> 100 µM	2.91 µM	14.4 µM	5.6 µM	24.8 µM	12.7 µM	> 100 µM	10.1 µM	47.2 µM	5.13 µM	> 100 µM	5.84 µM	> 95.3 µM	8.55 µM	> 100 µM	4.81 µM	> 100 µM	2.85 µM	8.53 µM
O=C(O)CC1C(=O)OC2C3COC(=O)c4cc(O)c(O)c(O)c4-c4c(cc(O)c(O)c4O)C(=O)OC2C(OC(=O)c2cc(O)c(O)c4c2C1C(O)C(=O)O4)C(OC(=O)c1cc(O)c(O)c(O)c1)O3 (centres undefined)		> 100 µM		52.6 µM		> 100 µM		> 100 µM		> 100 µM		> 100 µM		73 µM		> 100 µM		56.5 µM		31.5 µM
O=C1c2ccccc2C(=O)c2c(NCCNCCO)ccc(NCCNCCO)c21	2.05 µM and 0.967 µM and 1.39 µM	49 µM and 13 µM and > 44.8 µM	0.289 µM and 0.508 µM and 0.227 µM	4.94 µM and 5.08 µM and 2.08 µM	1.6 µM and 1.18 µM and 1.21 µM	4.97 µM and 6.88 µM and 3.85 µM	1.14 µM and 1.67 µM and 1.25 µM	7.09 µM and 7.05 µM and 5.97 µM	1.26 µM and 1.45 µM and 2.06 µM	11.5 µM and 9.32 µM and 11.8 µM	1.15 µM and 1.08 µM and 0.838 µM	11.8 µM and 13.5 µM and 11.3 µM	0.373 µM and 0.442 µM and 0.285 µM	5.18 µM and 6.64 µM and 2.96 µM	1.46 µM and 1.61 µM and 1.7 µM	3.14 µM and 3.87 µM and 5.01 µM	0.757 µM and 1.69 µM and 1.18 µM	4.66 µM and 14.3 µM and 12.9 µM	0.426 µM and 0.941 µM and 0.545 µM	4.19 µM and 6.13 µM and 6.12 µM
O=C(O)CN(CC(=O)O)c1ccccc1		> 100 µM		> 100 µM		> 100 µM		> 100 µM		> 100 µM		> 100 µM		> 100 µM		> 100 µM		> 100 µM		> 100 µM
Cc1ccc(NC(C(=O)c2ccccc2)c2ccccc2)cc1 (centres undefined)	7.94 µM	> 100 µM	3.58 µM	8.95 µM	2.42 µM	9.52 µM	2.02 µM	11.5 µM	15.8 µM	58.2 µM	3.47 µM	> 100 µM	4.24 µM	25.1 µM	8.07 µM	37.3 µM	4.02 µM	15.6 µM	3.22 µM	39.4 µM
COc1cccc(C(C#N)NC23CC4CC(CC(C4)C2)C3)c1 (centres undefined)		> 100 µM		> 100 µM		> 100 µM		> 100 µM		> 100 µM		> 100 µM		> 100 µM		> 100 µM		> 100 µM		> 100 µM
O=[N+]([O-])c1ccc(N/N=C/c2ccccc2O)nc1	0.594 µM	> 100 µM	3.74 µM	> 100 µM	5.8 µM	> 100 µM	3.2 µM	> 100 µM	2.54 µM	> 100 µM	1.14 µM	> 100 µM	1.69 µM	> 100 µM	4.38 µM	> 100 µM	3.03 µM	> 100 µM	0.92 µM	> 100 µM
CCCCCCCCCCCCNC(=O)[C@H]1CSC(c2cc(Br)cs2)N1 (some centres undefined)	2.01 µM	6.54 µM	4.61 µM	11.5 µM	3.68 µM	10.2 µM	1.98 µM	8.66 µM	1.06 µM	2.23 µM	1.4 µM	4.19 µM	1.05 µM	2.26 µM	0.759 µM	1.49 µM	2.51 µM	8.32 µM	0.797 µM	1.56 µM
O=C1/C(=C\c2ccc([N+](=O)[O-])cc2)CS(=O)(=O)C/C1=C/c1ccc([N+](=O)[O-])cc1	0.19 µM	0.405 µM and 2.19 µM	0.258 µM	0.656 µM and 6.43 µM	0.32 µM	2.12 µM	0.446 µM	2.95 µM		15.5 µM	0.0889 µM	0.481 µM and 2.74 µM	0.0731 µM	0.483 µM and 2 µM	0.188 µM	0.444 µM and 3.59 µM	0.133 µM	0.356 µM and 0.359 µM	0.0309 µM	
C/C(=C\CCc1ccsc1)CC/C=C(\C)CCCN1CCN(CCO)CC1	4.67 µM	17.4 µM	1.73 µM	7.48 µM	1.87 µM	3.73 µM	2.03 µM	5.09 µM	7.58 µM	21 µM	1.93 µM	4.29 µM	2.27 µM	7.28 µM	1.87 µM	3.91 µM	2.27 µM	5.35 µM	1.8 µM	3.37 µM
COc1cc(-c2ccc(Nc3ccccc3C(=O)O)c(OC)c2)ccc1Nc1ccccc1C(=O)O		> 94.6 µM		66.9 µM		> 100 µM		> 65.7 µM		> 100 µM		> 100 µM		37.3 µM		> 100 µM		> 100 µM		30.9 µM
COc1ccccc1N(C(C)=O)C1=C(Cl)C(=O)c2ccccc2C1=O	1.43 µM	2.73 µM	0.304 µM	1.85 µM	1.66 µM	3.2 µM	0.382 µM	2.95 µM	2.46 µM	7.33 µM	1.06 µM	2.55 µM	2.62 µM	11.8 µM	2.4 µM	7.03 µM	3.15 µM	12 µM	2.29 µM	8.08 µM
O=C(NCCSSCCNC(=O)/C(Cc1ccc(O)c(Br)c1)=N/O)/C(Cc1ccc(O)c(Br)c1)=N/O		5.77 µM		22.9 µM		7.44 µM		13.1 µM		3.32 µM		14.3 µM		4.53 µM		16.3 µM		8.49 µM		3.31 µM
Cc1ccc(-n2nnc3c(sc4ccccc43)c2=O)cc1	4.17 µM	> 100 µM	1.54 µM	6.82 µM	8.4 µM	> 100 µM	30.4 µM	> 100 µM	3.54 µM	19.4 µM	26.2 µM	> 100 µM	3.38 µM	19 µM	> 100 µM	> 100 µM	3.4 µM	12.1 µM	4.09 µM	> 100 µM
CC[C@@]1(O)C(=O)OCc2c1cc1n(c2=O)Cc2cc3c(Cl)c4c(cc3nc2-1)OCO4	< 0.001 µM	0.00185 µM and 0.0109 µM	< 0.001 µM	0.0801 µM	0.087 µM	31.4 µM	< 0.001 µM	> 100 µM	0.00265 µM and 0.0176 µM			> 100 µM	< 0.001 µM		0.442 µM and 1.18 µM	> 100 µM		> 100 µM	< 0.001 µM	0.218 µM and 0.321 µM
